Assay results from ChEMBL document CHEMBL1201862, “PubChem BioAssay data set” (2004).
The source made the active and inactive calls.

Key:
[1] = molecular target: Photoreceptor-specific nuclear receptor (Homo sapiens, UniProt Q9Y5X4); format: functional, cell-based;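 further: CHO-S cells with Gal4-NCOR and VP16-NR2E3 two-hybrid luciferase reporter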
[2] = system: CHO; assay: cytotoxicity in TLR9-MyD88 CHO cells, dose response, cytotoxicity control for TLR9-MyD88 binding inhibitor project, cell-based, luminescence (AID 588339); format: functional, hamster; conditions: Cricetulus griseus;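 further: CHO cells stably coexpressing TLR9 and MyD88 fusions from primary screen; compound exposure lasted 48 hours before viability readout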
[3] = molecular target: T1, Beta Lactamase (Pseudomonas aeruginosa, UniProt Q932Y6); assay: beta-lactamase reporter inhibitor potency, dose response, artefact control for TLR9-MyD88 binding inhibitor project, BLA reporter cells, FRET fluorescence (AID 588341); format: cell-based;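 further: cell based assay in CHO-K1 cells stably expressing beta-lactamase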
[4] = cells; format: functional, cell-based
[5] = molecular target: T1, Beta Lactamase; assay: beta-lactamase reporter inhibitor potency, dose response, artefact control for NOD2-RIPK2 interaction inhibitor project, BLA reporter cells, FRET fluorescence (AID 651552); format: functional, cell-based
[6] = Fluorescence-based cell-based high throughput dose response assay for inhibitors of the interaction of nucleotide-binding oligomerization domain containing 2 (NOD2) and the receptor-interacting serine-threonine kinase 2 (RIPK2).; format: functional; conditions: Homo sapiens
[7] = molecular target: T2, Microphthalmia-associated transcription factor (Homo sapiens, UniProt O75030); assay: TRPM1 promoter luciferase signal decrease, dose response, MITF inhibitor project, cell-based, SK-MEL-5, cherry-picked, set 3 (AID 493073); format: functional
T2 sequence (O75030 whole entry): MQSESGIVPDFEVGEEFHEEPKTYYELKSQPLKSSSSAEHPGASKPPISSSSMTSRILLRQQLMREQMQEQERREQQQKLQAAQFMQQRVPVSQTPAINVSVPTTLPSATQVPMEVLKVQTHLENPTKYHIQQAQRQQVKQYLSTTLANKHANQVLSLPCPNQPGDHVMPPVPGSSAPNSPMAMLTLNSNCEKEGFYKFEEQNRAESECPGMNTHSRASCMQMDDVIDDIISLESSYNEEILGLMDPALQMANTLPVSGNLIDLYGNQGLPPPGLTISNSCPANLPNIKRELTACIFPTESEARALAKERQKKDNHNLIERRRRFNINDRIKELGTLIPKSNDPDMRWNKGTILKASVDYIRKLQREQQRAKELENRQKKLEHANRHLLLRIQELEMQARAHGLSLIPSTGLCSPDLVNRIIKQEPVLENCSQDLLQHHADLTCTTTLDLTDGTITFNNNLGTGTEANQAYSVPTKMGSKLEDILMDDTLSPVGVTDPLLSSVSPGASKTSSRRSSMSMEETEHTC

[8] = molecular target: T3, Type-1 angiotensin II receptor (Homo sapiens, UniProt P30556); assay: AT1 receptor antagonists, dose response, selectivity assay for APJ receptor antagonist project, cell-based, uHTS hits (AID 463214); format: functional;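 further: antagonist potency against angiotensin II stimulated AT1 response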
T3 sequence (P30556 whole entry): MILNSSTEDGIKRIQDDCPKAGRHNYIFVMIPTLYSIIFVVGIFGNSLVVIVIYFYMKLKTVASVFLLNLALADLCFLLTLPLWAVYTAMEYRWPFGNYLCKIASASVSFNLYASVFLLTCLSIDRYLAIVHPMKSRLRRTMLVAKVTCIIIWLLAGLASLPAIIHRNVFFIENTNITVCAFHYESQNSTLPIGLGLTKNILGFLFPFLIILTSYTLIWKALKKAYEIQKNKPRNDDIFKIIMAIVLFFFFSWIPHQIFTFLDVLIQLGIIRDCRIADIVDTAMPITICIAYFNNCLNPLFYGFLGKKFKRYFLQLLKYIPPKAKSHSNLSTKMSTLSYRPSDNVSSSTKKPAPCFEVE

[9] = molecular target: Beta-galactosidase (Escherichia coli, UniProt Q8VNN2); assay: PubChem AID 485352; format: functional
[10] = cells; format: functional, cell-based; remark: listed apart in the source
[11] = molecular target: T4, ATP-dependent translocase ABCB1 (Homo sapiens, UniProt P08183); assay: ABCG2 efflux pump inhibitor potency, dose response, Ig-MXP3 cells, JC-1, flow cytometry, set 2 (AID 504566); format: functional; conditions: read-out: EC50_MICROM_;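 further: flow cytometry median green fluorescence of retained JC-1 dye; potency of efflux pump inhibition measured as rising substrate retention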
[12] = molecular target: T4, ATP-dependent translocase ABCB1; assay: ABCB1 efflux inhibitor potency, dose response, Jurkat-DNR cells, JC-1, flow cytometry, set 2 (AID 504569); format: functional; conditions: read-out: EC50_MICROM_;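 further: potency of pump inhibitors that raise cellular JC-1 green fluorescence up to the nicardipine level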

T4 sequence (P08183 whole entry): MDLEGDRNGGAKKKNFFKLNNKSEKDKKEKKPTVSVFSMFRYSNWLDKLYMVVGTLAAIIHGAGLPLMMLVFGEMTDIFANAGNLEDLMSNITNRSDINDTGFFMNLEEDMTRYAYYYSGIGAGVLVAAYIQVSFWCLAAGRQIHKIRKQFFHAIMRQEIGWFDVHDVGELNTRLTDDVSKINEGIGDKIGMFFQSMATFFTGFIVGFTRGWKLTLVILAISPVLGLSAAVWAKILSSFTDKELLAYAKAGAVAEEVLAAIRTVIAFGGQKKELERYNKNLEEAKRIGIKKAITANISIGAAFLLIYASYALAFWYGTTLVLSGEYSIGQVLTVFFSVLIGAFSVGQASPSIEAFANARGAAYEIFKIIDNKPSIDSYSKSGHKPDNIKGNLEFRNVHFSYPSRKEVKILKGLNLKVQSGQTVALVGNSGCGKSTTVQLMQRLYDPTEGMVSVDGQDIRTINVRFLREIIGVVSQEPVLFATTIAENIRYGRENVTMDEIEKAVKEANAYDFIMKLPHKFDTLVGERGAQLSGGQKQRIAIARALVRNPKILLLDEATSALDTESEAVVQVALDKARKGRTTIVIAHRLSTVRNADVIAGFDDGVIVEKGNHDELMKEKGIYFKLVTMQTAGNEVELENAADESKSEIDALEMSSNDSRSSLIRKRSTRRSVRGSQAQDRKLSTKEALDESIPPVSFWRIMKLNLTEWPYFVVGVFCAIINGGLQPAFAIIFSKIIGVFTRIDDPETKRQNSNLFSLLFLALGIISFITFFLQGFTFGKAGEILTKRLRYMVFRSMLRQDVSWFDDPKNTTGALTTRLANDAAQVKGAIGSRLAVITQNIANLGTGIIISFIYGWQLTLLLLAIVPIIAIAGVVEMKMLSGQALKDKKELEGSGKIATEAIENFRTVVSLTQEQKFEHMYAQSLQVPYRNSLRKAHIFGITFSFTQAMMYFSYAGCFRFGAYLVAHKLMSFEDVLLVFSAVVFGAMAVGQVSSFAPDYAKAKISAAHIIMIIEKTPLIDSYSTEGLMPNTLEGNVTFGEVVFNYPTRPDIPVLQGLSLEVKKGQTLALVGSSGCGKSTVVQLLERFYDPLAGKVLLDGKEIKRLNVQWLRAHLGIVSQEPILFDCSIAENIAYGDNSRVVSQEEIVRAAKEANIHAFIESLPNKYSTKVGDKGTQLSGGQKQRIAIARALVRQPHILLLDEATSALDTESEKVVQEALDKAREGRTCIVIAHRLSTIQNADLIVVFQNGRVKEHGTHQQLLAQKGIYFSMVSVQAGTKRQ
T1 sequence (Q932Y6 whole entry): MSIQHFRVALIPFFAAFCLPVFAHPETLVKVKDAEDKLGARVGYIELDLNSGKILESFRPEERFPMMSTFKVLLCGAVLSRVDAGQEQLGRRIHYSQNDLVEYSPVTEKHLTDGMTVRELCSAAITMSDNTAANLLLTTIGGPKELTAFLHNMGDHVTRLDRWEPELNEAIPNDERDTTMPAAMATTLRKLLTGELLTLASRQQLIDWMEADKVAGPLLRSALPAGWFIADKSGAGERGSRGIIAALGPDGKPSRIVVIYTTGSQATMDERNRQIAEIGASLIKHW
Chain of Beta-galactosidase (Q8VNN2 whole entry): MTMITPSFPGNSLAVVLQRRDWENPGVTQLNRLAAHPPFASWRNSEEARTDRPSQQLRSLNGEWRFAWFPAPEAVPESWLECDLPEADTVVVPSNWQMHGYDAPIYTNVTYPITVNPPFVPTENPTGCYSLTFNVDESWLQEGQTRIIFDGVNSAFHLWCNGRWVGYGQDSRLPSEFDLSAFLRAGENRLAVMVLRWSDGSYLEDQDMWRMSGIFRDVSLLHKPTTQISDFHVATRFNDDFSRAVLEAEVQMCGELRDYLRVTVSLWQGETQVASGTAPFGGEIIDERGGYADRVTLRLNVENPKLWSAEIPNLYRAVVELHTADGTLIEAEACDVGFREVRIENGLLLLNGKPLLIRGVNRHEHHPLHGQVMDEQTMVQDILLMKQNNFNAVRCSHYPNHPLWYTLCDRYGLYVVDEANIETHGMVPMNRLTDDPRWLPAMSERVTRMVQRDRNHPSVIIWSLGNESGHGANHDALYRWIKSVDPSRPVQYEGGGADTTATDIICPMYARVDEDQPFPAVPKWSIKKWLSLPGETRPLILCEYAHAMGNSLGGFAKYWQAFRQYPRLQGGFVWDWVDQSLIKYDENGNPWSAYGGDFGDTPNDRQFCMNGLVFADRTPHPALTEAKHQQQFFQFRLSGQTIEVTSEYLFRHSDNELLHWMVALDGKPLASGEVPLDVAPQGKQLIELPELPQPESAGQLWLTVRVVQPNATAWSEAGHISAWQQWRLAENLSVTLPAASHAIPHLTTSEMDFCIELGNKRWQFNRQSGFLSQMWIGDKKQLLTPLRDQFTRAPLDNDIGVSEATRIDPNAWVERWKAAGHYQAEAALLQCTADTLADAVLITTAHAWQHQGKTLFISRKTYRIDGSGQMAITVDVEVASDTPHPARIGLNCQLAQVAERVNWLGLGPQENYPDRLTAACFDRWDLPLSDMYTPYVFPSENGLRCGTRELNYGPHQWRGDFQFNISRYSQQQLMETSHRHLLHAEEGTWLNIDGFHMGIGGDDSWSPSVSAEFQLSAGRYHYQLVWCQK
Chain of Photoreceptor-specific nuclear receptor (Q9Y5X4 whole entry, the tested form may be a part): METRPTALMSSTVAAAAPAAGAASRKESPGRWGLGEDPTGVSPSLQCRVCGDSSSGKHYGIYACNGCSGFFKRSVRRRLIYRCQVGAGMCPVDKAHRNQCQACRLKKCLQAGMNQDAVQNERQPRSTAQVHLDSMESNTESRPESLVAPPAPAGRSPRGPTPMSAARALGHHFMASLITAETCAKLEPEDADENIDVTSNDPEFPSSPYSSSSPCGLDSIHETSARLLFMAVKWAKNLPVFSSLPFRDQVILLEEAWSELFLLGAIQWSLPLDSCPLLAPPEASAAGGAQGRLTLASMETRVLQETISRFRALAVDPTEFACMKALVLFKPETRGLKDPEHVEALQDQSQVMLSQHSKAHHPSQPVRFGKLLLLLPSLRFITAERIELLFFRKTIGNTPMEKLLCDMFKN

CC(C(=O)N1CCN(c2ccc(Cl)cc2)CC1)c1ncc(C(F)(F)F)cc1Cl (configuration not stated)
IC50 [1]: 3.65 µM (active)

COc1ccc(C(=O)/C=C/C(=O)N(CC(=O)NC2CCCCC2)CC2CCCO2)c(O)c1 (configuration not stated)
IC50 [2]: 1.84 µM (active)
IC50 [3]: 23.3 µM (inactive)
EC50 [4]: 34.3 µM (active)
IC50 [5]: 19.9 µM (inactive)
IC50 [6]: 2.17 µM (active)
AC50 [7]: 4.01 µM (active)
IC50 [8]: 5.35 µM (active)
EC50 [9]: > 40 µM (inactive)
EC50 [10]: > 350 µM (not active)

Cc1cc(N2CCN(C(=O)c3ccco3)CC2)n2nc(C)c(-c3ccc(Cl)cc3)c2n1
EC50 [11]: 17.7 µM (inactive)
EC50 [12]: 28.1 µM (inactive)
